The results in this text go back to ChEMBL document CHEMBL1909046, “DrugMatrix in vitro pharmacology data”.

Assay [1] concerns the target T1, Alpha-1A adrenergic receptor (Rattus norvegicus, UniProt P43140).
T1 sequence (P43140 whole entry): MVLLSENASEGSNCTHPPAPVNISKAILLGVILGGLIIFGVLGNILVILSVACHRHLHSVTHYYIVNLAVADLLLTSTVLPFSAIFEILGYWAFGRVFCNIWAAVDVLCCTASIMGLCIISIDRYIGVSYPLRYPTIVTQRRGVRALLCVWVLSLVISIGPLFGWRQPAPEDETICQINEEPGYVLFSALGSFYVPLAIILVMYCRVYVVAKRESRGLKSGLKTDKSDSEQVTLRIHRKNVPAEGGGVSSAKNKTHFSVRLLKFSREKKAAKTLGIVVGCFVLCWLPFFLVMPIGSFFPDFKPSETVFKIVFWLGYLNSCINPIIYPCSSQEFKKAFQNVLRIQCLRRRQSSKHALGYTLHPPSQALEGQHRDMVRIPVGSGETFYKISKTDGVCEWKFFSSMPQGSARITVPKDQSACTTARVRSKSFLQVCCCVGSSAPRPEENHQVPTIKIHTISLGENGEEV
Nature of the assay: DRUGMATRIX: Alpha-1A adrenergic receptor radioligand binding (ligand: prazosin). It counts as cell membranes, Wistar, Submaxillary gland, Membrane. The conditions noted are these: Not Active = under 50% inhibition at 10 µM.

Assay [2] concerns the target T2, Alpha-1D adrenergic receptor (Homo sapiens, UniProt P25100). Also: in other assays of this panel Not Active means under 50% inhibition at 10 µM.
T2 sequence (P25100 whole entry): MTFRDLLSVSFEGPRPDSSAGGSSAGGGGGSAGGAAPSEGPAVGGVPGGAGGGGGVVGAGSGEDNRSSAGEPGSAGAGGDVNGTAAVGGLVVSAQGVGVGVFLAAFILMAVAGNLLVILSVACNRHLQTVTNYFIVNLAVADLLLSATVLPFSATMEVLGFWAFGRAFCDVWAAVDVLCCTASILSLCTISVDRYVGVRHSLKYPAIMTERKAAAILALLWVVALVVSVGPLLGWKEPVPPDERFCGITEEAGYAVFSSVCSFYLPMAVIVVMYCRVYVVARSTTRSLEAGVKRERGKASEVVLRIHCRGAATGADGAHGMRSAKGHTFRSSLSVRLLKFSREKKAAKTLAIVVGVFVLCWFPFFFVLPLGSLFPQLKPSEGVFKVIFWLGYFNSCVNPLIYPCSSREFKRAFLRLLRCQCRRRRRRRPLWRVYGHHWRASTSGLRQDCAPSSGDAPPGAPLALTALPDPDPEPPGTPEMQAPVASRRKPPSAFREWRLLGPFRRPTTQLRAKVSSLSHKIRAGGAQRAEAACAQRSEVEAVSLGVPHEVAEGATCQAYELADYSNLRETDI
It counts as cell membranes, HEK293, Membrane. The conditions noted are these: hek293.

Assay [3] addresses T3, 5-hydroxytryptamine receptor 2C (Homo sapiens, UniProt P28335).
T3 sequence (P28335 whole entry): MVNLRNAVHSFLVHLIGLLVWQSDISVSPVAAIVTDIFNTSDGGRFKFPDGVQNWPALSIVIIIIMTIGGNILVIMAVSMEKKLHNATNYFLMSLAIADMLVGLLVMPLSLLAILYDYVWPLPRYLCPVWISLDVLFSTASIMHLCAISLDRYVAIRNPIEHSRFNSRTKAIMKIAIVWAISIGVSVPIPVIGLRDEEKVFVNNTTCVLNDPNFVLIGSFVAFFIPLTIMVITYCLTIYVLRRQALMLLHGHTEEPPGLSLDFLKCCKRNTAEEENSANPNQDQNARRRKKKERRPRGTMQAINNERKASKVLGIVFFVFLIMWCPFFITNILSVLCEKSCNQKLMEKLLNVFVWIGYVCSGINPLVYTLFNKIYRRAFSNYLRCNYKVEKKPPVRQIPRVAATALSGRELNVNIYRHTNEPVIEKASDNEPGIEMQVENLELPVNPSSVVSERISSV
Description: DRUGMATRIX: Serotonin (5-Hydroxytryptamine) 5-HT2C radioligand binding (ligand: [3H] Mesulergine). It counts as cell membranes, CHO-K1, Membrane. As to conditions: Not Active = under 50% inhibition at 10 µM.

Another assay addresses D(1A) dopamine receptor (Homo sapiens, UniProt P21728). Description: DRUGMATRIX: Dopamine D1 radioligand binding (ligand: [3H] SCH-23390). It counts as cell membranes, CHO, Membrane. As to conditions: Not Active = under 50% inhibition at 10 µM.
Assay [4] is described as follows: DRUGMATRIX: GABAA, Muscimol, Central radioligand binding (ligand: [3H] Muscimol). It counts as cell membranes, Rattus norvegicus, Wistar, Brain, Membrane. As to conditions: Not Active = under 50% inhibition at 10 µM.
The target in assay [5] is T4, Neuropeptide Y receptor type 1 (Homo sapiens, UniProt P25929). Also: in other assays of this panel Not Active means under 50% inhibition at 10 µM.
T4 sequence (P25929 whole entry): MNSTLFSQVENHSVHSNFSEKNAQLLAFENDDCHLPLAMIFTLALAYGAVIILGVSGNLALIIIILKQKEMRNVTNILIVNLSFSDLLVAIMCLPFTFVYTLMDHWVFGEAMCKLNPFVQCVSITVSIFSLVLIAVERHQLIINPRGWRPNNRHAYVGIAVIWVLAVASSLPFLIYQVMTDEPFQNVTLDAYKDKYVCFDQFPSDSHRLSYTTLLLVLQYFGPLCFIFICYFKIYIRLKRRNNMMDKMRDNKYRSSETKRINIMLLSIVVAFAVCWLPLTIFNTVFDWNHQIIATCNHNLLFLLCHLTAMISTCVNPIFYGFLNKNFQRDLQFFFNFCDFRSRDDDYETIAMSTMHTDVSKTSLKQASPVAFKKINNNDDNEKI
It counts as cell membranes, Membrane. As to conditions: sk-n-mc.

D(1A) dopamine receptor, sequence (P21728 whole entry): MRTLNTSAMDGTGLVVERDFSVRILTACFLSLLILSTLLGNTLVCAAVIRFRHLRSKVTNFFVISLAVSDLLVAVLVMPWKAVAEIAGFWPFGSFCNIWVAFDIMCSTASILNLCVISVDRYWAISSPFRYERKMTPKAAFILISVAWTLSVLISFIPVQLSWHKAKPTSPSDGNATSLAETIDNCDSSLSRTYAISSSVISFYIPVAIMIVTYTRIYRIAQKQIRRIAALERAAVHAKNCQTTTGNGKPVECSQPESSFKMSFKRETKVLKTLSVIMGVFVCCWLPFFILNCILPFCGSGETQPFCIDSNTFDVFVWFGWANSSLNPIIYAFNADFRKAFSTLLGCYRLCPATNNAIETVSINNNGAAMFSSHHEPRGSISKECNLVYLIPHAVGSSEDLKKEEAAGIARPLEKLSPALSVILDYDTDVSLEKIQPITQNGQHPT

The IC50 is the concentration that inhibits the measured activity by half. One may read the Ki as the dissociation constant of the complex between target and ligand, obtained from inhibition or displacement. In the case of `OCCN(CCO)c1nc(N2CCCCC2)c2nc(N(CCO)CCO)nc(N3CCCCC3)c2n1` [DIPYRIDAMOLE], the IC50 entry (in assay [1]; in assay [2]; in assay [3] (cho-k1); on D(1A) dopamine receptor (cho); in assay [4]; in assay [5]) was “Not Active” throughout. Besides, the Ki entry in assay [4] is on record as “Not Active”.
On to `O=NN(CCCl)C(=O)NC1CCCCC1` [LOMUSTINE], for which the half-inhibitory concentration (IC50) result (in assay [1]; in assay [2]; in assay [3] (cho-k1); at D(1A) dopamine receptor (cho); in assay [4]; in assay [5]) was “Not Active” throughout. In addition, the Ki entry in assay [4] is given as “Not Active”.
For the compound `O=c1ncn2nc(Sc3ccc(F)cc3F)ccc2c1-c1c(Cl)cccc1Cl` [NEFLAMAPIMOD], the IC50 result (in assay [1]; in assay [2]; in assay [3] (cho-k1); at D(1A) dopamine receptor (cho); in assay [4]; in assay [5]) was “Not Active” in each case. Moreover, in assay [4], the Ki result is “Not Active”.
Turning to `CC[C@]1(O)C[C@H]2CN(CCc3c([nH]c4ccccc34)[C@@](C(=O)OC)(c3cc4c(cc3OC)N(C=O)[C@H]3[C@@](O)(C(=O)OC)[C@H](OC(C)=O)[C@]5(CC)C=CCN6CC[C@]43[C@@H]65)C2)C1` [VINCRISTINE], the IC50 entry (in assay [1]; in assay [2]; in assay [3] (cho-k1); on D(1A) dopamine receptor (cho); in assay [4]; in assay [5]) was “Not Active” each time. Further, the inhibitory constant (Ki) entry in assay [4] is “Not Active”.
With `CSc1ccc(/C=C2/C(C)=C(CC(=O)O)c3cc(F)ccc32)cc1` [SULINDAC SULFIDE], the IC50 entry in assay [1] is “Not Active”; in assay [2], “Not Active”; in assay [3] (cho-k1) it was “Not Active”; on D(1A) dopamine receptor (read-out: IC50), 27800 nM; in assay [4], “Not Active”; in assay [5], “Not Active”. Moreover, the Ki at D(1A) dopamine receptor (read-out: Ki) is 13900 nM; in assay [4], “Not Active”.
As to `CC(=O)[C@@]1(O)CC[C@H]2[C@@H]3C[C@H](C)C4=CC(=O)CC[C@]4(C)[C@H]3CC[C@@]21C`, the IC50 entry (in assay [1]; in assay [2]; in assay [3] (cho-k1); at D(1A) dopamine receptor (cho); in assay [4]; in assay [5]) was “Not Active” throughout. Further, the Ki result in assay [4] is recorded as “Not Active”.
Consider `Cc1noc(NS(=O)(=O)c2ccc(N)cc2)c1C` [SULFISOXAZOLE], for which the IC50 result (in assay [1]; in assay [2]; in assay [3] (cho-k1); on D(1A) dopamine receptor (cho); in assay [4]; in assay [5]) was “Not Active” in each case. Further, the Ki result in assay [4] is listed as “Not Active”.
On to `N[C@@H](Cc1ccc(O)c(O)c1)C(=O)O` [LEVODOPA], for which the IC50 result (in assay [1]; in assay [2]; in assay [3] (cho-k1); on D(1A) dopamine receptor (cho); in assay [4]; in assay [5]) was “Not Active” throughout. The Ki entry in assay [4] is listed as “Not Active”.
As for `NS(=O)(=O)c1cc2c(cc1Cl)NC(C(Cl)Cl)NS2(=O)=O` (stereo not drawn) [TRICHLORMETHIAZIDE], the IC50 result (in assay [1]; in assay [2]; in assay [3] (cho-k1); at D(1A) dopamine receptor (cho); in assay [4]; in assay [5]) was “Not Active” throughout. In assay [4], the Ki entry is recorded as “Not Active”.
Consider `Nc1c2c(nc3ccccc13)CCCC2` [TACRINE], for which the IC50 in assay [1] (read-out: IC50) is 2750 nM; in assay [2] it was “Not Active”; in assay [3] (cho-k1) it was “Not Active”; at D(1A) dopamine receptor (cho) it was “Not Active”; in assay [4], “Not Active”; in assay [5], “Not Active”. In addition, the Ki is 1110 nM in assay [1] (read-out: Ki) and “Not Active” in assay [4].
Turning to `NC[C@H]1CC[C@H](C(=O)O)CC1` [TRANEXAMIC ACID], the IC50 entry (in assay [1]; in assay [2]; in assay [3] (cho-k1); at D(1A) dopamine receptor (cho); in assay [4]; in assay [5]) was “Not Active” in each case. For the same compound, the Ki result in assay [4] is “Not Active”.
Consider `CCOC(=O)N1CCC(=C2c3ccc(Cl)cc3CCc3cccnc32)CC1` [LORATADINE], for which the IC50 entry (in assay [1]; in assay [2]; in assay [3] (cho-k1); at D(1A) dopamine receptor (cho); in assay [4]; in assay [5]) was “Not Active” throughout. Moreover, the Ki result in assay [4] is listed as “Not Active”.
Regarding `c1ccc([C@H]2CN3CCSC3=N2)cc1` [LEVAMISOLE], the IC50 result (in assay [1]; in assay [2]; in assay [3] (cho-k1); at D(1A) dopamine receptor (cho); in assay [4]; in assay [5]) was “Not Active” each time. Also, in assay [4], the Ki entry is “Not Active”.
For the compound `CC[C@@H](CO)NC(=O)[C@@H]1C=C2c3cccc4[nH]cc(c34)C[C@H]2N(C)C1` [METHYLERGONOVINE], the IC50 result was “Not Active” in assay [1]; “Not Active” in assay [2]; 13 nM in assay [3] (read-out: IC50); 1080 nM at D(1A) dopamine receptor (read-out: IC50); “Not Active” in assay [4]; “Not Active” in assay [5]. For the same compound, the Ki in assay [3] (read-out: Ki) is 6.56 nM; on D(1A) dopamine receptor (read-out: Ki) it was 539 nM; in assay [4] it was “Not Active”.
For SODIUM NITROPRUSSIDE, the IC50 entry (in assay [1]; in assay [2]; in assay [3] (cho-k1); at D(1A) dopamine receptor (cho); in assay [4]; in assay [5]) was “Not Active” each time. Besides, the Ki result (in assay [1]; in assay [2]; in assay [3] (cho-k1); at D(1A) dopamine receptor (cho); in assay [4]; in assay [5]) was “Not Active” each time.
In the case of `CO[C@H]1/C=C/O[C@@]2(C)Oc3c(C)c(O)c4c(O)c(c(/C=N/N5CCN(C)CC5)c(O)c4c3C2=O)NC(=O)/C(C)=C\C=C\[C@H](C)[C@H](O)[C@@H](C)[C@@H](O)[C@@H](C)[C@H](OC(C)=O)[C@@H]1C` [RIFAMPIN], the IC50 entry (in assay [1]; in assay [2]; in assay [3] (cho-k1); on D(1A) dopamine receptor (cho); in assay [4]; in assay [5]) was “Not Active” in each case. Also, the Ki result in assay [4] is on record as “Not Active”.
Turning to `Cc1oncc1C(=O)Nc1ccc(C(F)(F)F)cc1` [LEFLUNOMIDE], the IC50 result (in assay [1]; in assay [2]; in assay [3] (cho-k1); on D(1A) dopamine receptor (cho); in assay [4]; in assay [5]) was “Not Active” throughout. For the same compound, in assay [4], the Ki entry was “Not Active”.
